# Experimental data as given in patent US7829560B2, “1,4-disubstituted naphthalenes as inhibitors of P38 MAP kinase” (Arqule, Inc., priority 2004, dated 2010).
# Like-named read-outs stand apart in the source and are kept apart here.
# Tests used:
# p38α = target: T1, p38α (Homo sapiens, UniProt Q16539); test: p38 MAP Kinase assay: inhibition of ATF2 phosphorylation, ELISA; assay type: biochemical; settings: for IC50: ATF2 phosphorylation, read-out: [ENZ] P38 ALPHA, IC50, ELISA; for inhibition at 10 µM: substrate ATF2, read-out: [ENZ] P38 ALPHA, PCT INH, ELISA (10 uM;ATF2) (Percent)
# T1 construct: p38 MAP Kinases are recombinant human full-length proteins with an amino-terminal GST fusion; GST (N); purchased Upstate Biotechnology Inc; host or cells: E. coli
# T1 sequence (Q16539 whole entry, the tested form may be a part): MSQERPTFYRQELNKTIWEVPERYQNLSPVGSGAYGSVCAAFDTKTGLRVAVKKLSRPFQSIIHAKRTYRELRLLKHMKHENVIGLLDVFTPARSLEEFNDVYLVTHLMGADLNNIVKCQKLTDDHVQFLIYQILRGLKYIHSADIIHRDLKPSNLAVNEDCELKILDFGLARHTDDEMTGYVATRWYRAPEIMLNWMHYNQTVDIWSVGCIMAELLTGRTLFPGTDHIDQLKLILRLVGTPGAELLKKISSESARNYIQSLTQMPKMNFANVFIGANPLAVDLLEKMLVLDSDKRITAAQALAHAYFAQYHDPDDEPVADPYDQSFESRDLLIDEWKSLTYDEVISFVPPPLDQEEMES
# How it was run: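 In vitro phosphorylation of ATF2 at Thr69 by recombinant human GST-p38 MAP kinase, read by anti-phospho-ATF2 ELISA at 450 nm. Enzyme and compound pre-incubated 15 min at RT, then 30 min reaction at 37 °C with 40 μM ATP and 1.25 μM ATF2; buffer with or without 1% HSA (Method II or I).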
# [1] = system: TNFα release from THP-1 cells; test: Inhibition of TNFα release from LPS-stimulated THP-1 cells, ELISA; assay type: cell-based; settings: Homo sapiens, read-out: [CELL] THP-1, IC50, TNF ALPHA, ELISA
# How it was run: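 TNFα released into supernatant after 18 h of 10 μg/ml LPS stimulation was quantified by ELISA and IC50 taken as 50% reduction by non-linear regression. THP-1 cells (10^6/ml; medium with 10% FBS, serum-free or 1% HSA) saw compound for 30 min at 37 °C beforehand; final DMSO ≤0.5%.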
Structure (SMILES),IC50 (p38α),"IC50 ([1]; THP-1, THP-1 cells)",inhibition at 10 µM (p38α),IC50 ([1]; THP-1 cells)
O=C(Nc1ccc(OCCN2CCOCC2)c2ccccc12)c1ccc(N2CCOCC2)nc1 [Compound B30],> 10000 nM,> 10000 nM,–,–
Cc1cccc(C(=O)Nc2ccc(OCCN3CCOCC3)c3ccccc23)c1 [Compound B56],> 10000 nM,> 10000 nM,–,–
O=C(Nc1ccc(OCCN2CCOCC2)c2ccccc12)c1cccc(-c2ccc(F)cc2)c1 [Compound B277],777 nM,1840 nM,–,–
CCCC/C=C/c1cccc(C(=O)Nc2ccc(OCCN3CCOCC3)c3ccccc23)c1 [Compound B99],> 10000 nM,5570 nM,45%,–
Cc1ccc(C(=O)Nc2ccc(OCCN3CCOCC3)c3ccccc23)cc1Br [Compound B37],> 100000 nM,> 10000 nM,–,–
COc1ccc(C(C)C)cc1-c1cccc(C(=O)Nc2ccc(OCCN3CCOCC3)c3ccccc23)c1 [Compound B294],> 10000 nM,> 10000 nM,–,–
CSc1cccc(-c2cccc(C(=O)Nc3ccc(OCCN4CCOCC4)c4ccccc34)c2)c1 [Compound B298],7370 nM,> 10000 nM,–,–
Cc1cc(-c2cccc(C(=O)Nc3ccc(OCCN4CCOCC4)c4ccccc34)c2)ccc1Cl [Compound B300],9080 nM,9060 nM,–,–
"CC1CCN(c2cc(C(=O)Nc3ccc(OCCN4CCOCC4)c4ccccc34)ccn2)CC1 [Compound B128, 4-Methyl-3,4,5,6-tetrahydro-2 H-[1,2′]bipyridinyl-4′-carboxylic acid [4-(2-morpholin-4-yl-ethoxy)-naphthalen-1-yl]-amide]",1150 nM,8710 nM,82%,–
O=C(Nc1ccc(OCCN2CCOCC2)c2ccccc12)c1cccc(Oc2ccccc2)c1 [Compound B61],2300 nM,> 10000 nM,–,–
O=C(Nc1ccc(OCCN2CCOCC2)c2ccccc12)c1cccc(-c2ccc3c(c2)OCO3)c1 [Compound B273],> 10000 nM,> 10000 nM,–,–
O=C(Nc1ccc(OCCN2CCOCC2)c2ccccc12)c1cccc(N2CCC3CCCCC3C2)n1 (stereo not drawn) [Compound B71],> 10000 nM,> 10000 nM,–,–
O=C(Nc1ccc(OCCN2CCOCC2)c2ccccc12)c1cc(N2CCOCC2)nc(N2CCCC2)n1 [Compound B47],> 10000 nM,842 nM,–,–
Cc1cc(F)ccc1-c1cccc(C(=O)Nc2ccc(OCCN3CCOCC3)c3ccccc23)c1 [Compound B245],631 nM,1140 nM,–,–
"O=C(Nc1ccc(OCCN2CCC(O)CC2)c2ccccc12)c1cc(F)cc(N2CCCCC2)c1 [Compound B158, 3-Fluoro-N-{4-[2-(4-hydroxypiperidin-1-yl)-ethoxy]-naphthalen-1-yl}-5-piperidin-1-yl-benzamide]",2670 nM,> 10000 nM,72%,–
CC(=O)c1ccc(-c2cccc(C(=O)Nc3ccc(OCCN4CCOCC4)c4ccccc34)c2)cc1 [Compound B274],> 10000 nM,> 10000 nM,–,–
"Cc1cc(C(=O)Nc2ccc(OCCN3CCOCC3)c3ccccc23)cc(N2CCCC2C)n1 (stereo not drawn) [Compound B155, 2-Methyl-6-(2-methyl-pyrrolidin-yl)-N-[4-(2-morpholin-4-yl-ethoxy)-naphthalen-1-yl]-isonicotinamide]",745 nM,2450 nM,89%,–
"CC1CCCCN1c1cc(F)cc(C(=O)Nc2ccc(OCCN3CCOCC3)c3ccccc23)c1 (stereo not drawn) [Compound B201, 3-Fluoro-5-(2-methylpiperidin-1-yl)-N-[4-(2-morpholin-4-ylethoxy)-1-naphthyl]benzamide]",323 nM,4730 nM,–,–
CC(=O)N1CCN(c2ccc(NC(=O)c3cc(F)cc(N4CCC(C)CC4)c3)c3ccccc23)CC1 [Compound B196],3190 nM,> 10000 nM,–,–
O=C(Nc1ccc(OCCN2CCOCC2)c2ccccc12)c1cn(Cc2ccccc2)c2ccccc12 [Compound B49],> 10000 nM,–,–,> 10000 nM
Cc1cc(C)c(-c2cccc(C(=O)Nc3ccc(OCCN4CCOCC4)c4ccccc34)c2)cc1C [Compound B302],> 10000 nM,> 10000 nM,–,–
"CC(C)(C)CNc1cccc(C(=O)Nc2ccc(OCCN3CCOCC3)c3ccccc23)c1 [Compound B173, 3-(2,2-Dimethyl-propylamino)-N-[4-(2-morpholin-4-yl-ethoxy)-naphthalen-1-yl]-benzamide]",735 nM,2280 nM,89.5%,–

Structure (SMILES),IC50 (p38α),"IC50 ([1]; THP-1, THP-1 cells)",inhibition at 10 µM (p38α),IC50 ([1]; THP-1 cells)
O=C(Nc1ccc(OCCN2CCOCC2)c2ccccc12)c1cc(F)cc(F)c1 [Compound B204],> 10000 nM,> 10000 nM,–,–
"N#CNc1nccc(Oc2ccc(NC(=O)c3cc(F)cc(N4CCOCC4)c3)c3ccccc23)n1 [Compound B330, N-(4-{[2-(Cyanoamino)pyrimidin-4-yl]oxy}-1-naphthyl)-3-fluoro-5-morpholin-4-ylbenzamide]",51.5 nM,> 1000 nM,–,–
Cc1nc(C(=O)Nc2ccc(OCCN3CCOCC3)c3ccccc23)cc(N2CCOCC2)n1 [Compound B46],> 10000 nM,685 nM,–,–
"O=C(Nc1ccc(OCCN2CCOCC2)c2ccccc12)c1ccnc(N2CCCCC2)c1 [Compound B127, 3,4,5,6-Tetrahydro-2 H-[1,2′]bipyridinyl-4′-carboxylic acid [4-(2-morpholin-4-yl-ethoxy)-naphthalen-1-yl]-amide]",1880 nM,782 nM,68.5%,–
CC1CCCN1c1nccc(Oc2ccc(NC(=O)c3cc(F)cc(N4CCOCC4)c3)c3ccccc23)n1 (stereo not drawn) [Compound B355],68.7 nM,878 nM,–,–
"O=C(Nc1ccc(OCCN2CCOCC2)c2ccccc12)c1cccc(-c2cccc(C(F)(F)F)c2)c1 [Compound B88, 3′-Trifluoromethyl-biphenyl-3-carboxylic acid [4-(2-morpholin-4-yl-ethoxy)-naphthalen-1-yl]-amide]",1850 nM,3600 nM,59%,–
COc1cccc(-c2cccc(C(=O)Nc3ccc(OCCN4CCOCC4)c4ccccc34)c2)c1OC [Compound B292],> 10000 nM,> 10000 nM,–,–
O=C(Nc1ccc(OCCN2CCOCC2)c2ccccc12)c1cc(Cl)nc(N2CCOCC2)c1 [Compound B305],1410 nM,2480 nM,–,–
COc1ccc(-c2cccc(C(=O)Nc3ccc(OCCN4CCOCC4)c4ccccc34)c2)cc1 [Compound B284],> 10000 nM,> 10000 nM,–,–
CN(CCO)c1nccc(Oc2ccc(NC(=O)c3cc(F)cc(N4CCCCC4)c3)c3ccccc23)n1 [Compound B373],20.9 nM,674 nM,–,–
"CN(C)CC(C)(C)CNc1nccc(Oc2ccc(NC(=O)c3cc(F)cc(N4CCOCC4)c3)c3ccccc23)n1 [Compound B317, N-{4-[2-(3-Dimethylamino-2,2-dimethyl-propylamino)-pyrimidin-4-yloxy]-naphthalen-1-yl}-3-fluoro-5-morpholin-4-yl-benzamide]",9.9 nM,23.8 nM,–,–
CC(=O)N1CCN(c2nccc(Oc3ccc(NC(=O)c4cc(F)cc(N5CCOCC5)c4)c4ccccc34)n2)CC1 [Compound B354],9.4 nM,217 nM,–,–
COCC(C)Nc1nccc(Oc2ccc(NC(=O)c3cc(F)cc(N4CCOCC4)c3)c3ccccc23)n1 (stereo not drawn) [Compound B353],3.9 nM,92.6 nM,–,–
O=C(Nc1ccc(OCCN2CCOCC2)c2ccccc12)c1cccc(-c2ccc(Cl)c(Cl)c2)c1 [Compound B283],> 10000 nM,> 10000 nM,–,–
O=C(Nc1ccc(Oc2ccnc(N3CCC(F)(F)CC3)n2)c2ccccc12)c1cc(F)cc(N2CCOCC2)c1 [Compound B361],55.5 nM,475 nM,–,–
"CCOC(=O)N1CCC(Nc2nccc(Oc3ccc(NC(=O)c4cc(F)cc(N5CCCCC5)c4)c4ccccc34)n2)CC1 [Compound B401, Ethyl-4-{[4-({4-[(3-fluoro-5-piperidin-1-ylbenzoyl)amino]-1-naphthyl}oxy)pyrimidin-2-yl]amino}piperidine-1-carboxylate]",25.6 nM,1100 nM,–,–
"CC1CCN(c2cc(F)cc(C(=O)Nc3ccc(OCc4nn[nH]n4)c4ccccc34)c2)CC1 [Compound B193, 3-Fluoro-5-(4-methylpiperidin-1-yl)-N-[4-(2H-tetrazol-5-ylmethoxy)-naphthalen-1-yl]-benzamide]",3840 nM,> 10000 nM,–,–
"CC1CCCC(C)N1c1cc(F)cc(C(=O)Nc2ccc(OCCN3CCOCC3)c3ccccc23)c1 (stereo not drawn) [Compound B205, 3-(2,6-Dimethylpiperidin-1-yl)-5-fluoro-N-[4-(2-morpholin-4-ylethoxy)-1-naphthyl]benzamide]",1680 nM,> 10000 nM,–,–
COc1ccc(F)cc1-c1cccc(C(=O)Nc2ccc(OCCN3CCOCC3)c3ccccc23)c1 [Compound B289],1470 nM,3090 nM,–,–
"CC(C)(C)CNc1cc(F)cc(C(=O)Nc2ccc(OCCN3CCOCC3)c3ccccc23)c1 [Compound B209, 3-[(2,2-Dimethylpropyl)amino]-5-fluoro-N-[4-(2-morpholin-4-ylethoxy)-1-naphthyl]benzamide]",513 nM,> 10000 nM,–,–
CN1CCN(c2cccc(C(=O)Nc3ccc(OCCN4CCOCC4)c4ccccc34)c2)CC1 [Compound B59],> 10000 nM,> 10000 nM,–,–
